Data from paper PMC9029089, “1,5-Disubstituted Acylated 2-Amino-4,5-dihydroimidazoles as a New Class of Retinoic Acid Receptor–Related Orphan Receptor (ROR) Inhibitors” (International Journal of Molecular Sciences, 2022).
Read-outs that look alike come from different tables or passages of the source.

Columns and labels:
Format in all cases: cell-based
RORγ [1] = target: T1, RORγ (Mus musculus, UniProt P51450); assay: Gal4-RORγ-LBD UAS-luciferase reporter assay in TRex-CHO-K1 cells (doxycycline-stimulated); details: for selectivity towards RORγ over RORα and RORβ: from IC50 values in reporter cells
T1 construct: mRORγ (Pro-261-end); expressed in transfected cells
T1 sequence (P51450 261-516 limits assumed): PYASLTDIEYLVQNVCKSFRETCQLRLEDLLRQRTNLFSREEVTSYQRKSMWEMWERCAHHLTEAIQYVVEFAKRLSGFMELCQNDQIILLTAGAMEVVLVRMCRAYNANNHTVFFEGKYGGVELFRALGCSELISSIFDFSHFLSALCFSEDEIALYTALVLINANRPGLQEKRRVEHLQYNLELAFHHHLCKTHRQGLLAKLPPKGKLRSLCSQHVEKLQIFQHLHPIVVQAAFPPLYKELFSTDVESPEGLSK
Excerpt: (§1) The Gal4-DBD-ROR-LBD fusion proteins were subcloned in the pcDNA4/TO expression vector (Thermo Scientific) and transfected into TRex-CHO-K1 cells (Thermo Scientific) for tetracycline-controlled expression of the corresponding ROR proteins. Transfected cells were selected with hygromycin and Zeocin and individual clones for each of the Gal4-RORγ, Gal4-RORα, and Gal4-RORβ cell lines were isolated using a standard serial dilution protocol. Clones with the highest doxycycline-dependent stimulation of luciferase activity were selected for all functional experiments.
(§2) For screening FIU libraries, cells were resuspended in Ham’s F-12 assay medium containing 2% charcoal-treated FBS and no selection drugs. […] Cells were allowed to attach for 2 h, followed by compound treatment and stimulation with 20 ng/mL doxycycline for an additional 16–20 h. Appropriate solvent controls, negative controls with no doxycycline, and blanks with no cells were included in every plate. Prior to measuring luciferase activity, 6 µL of 0.15 mg/mL resazurin (Cayman Chemical) in PBS were added and cells were incubated for 1 h at 37 °C. Fluorescence intensity was detected at 545 nm excitation/590 nm emission using a CLARIOstar reader (BMGLabtech) as a measure of cell viability, to identify any potential cytotoxic effect of test compounds and mixtures.
(§3) Luminescence was normalized by the fluorescence intensity and the percentage of inhibition was calculated with respect to control cells stimulated with doxycycline in the presence of solvent control (0.1% DMF). All primary screens with individual compounds were performed in triplicate with a final concentration of 5 µg/mL. […] IC50 values were calculated using GraphPrism (GraphPad software).

RORα = target: T2, RORα (Homo sapiens, UniProt P35398); assay: Gal4-RORα-LBD UAS-luciferase reporter assay in TRex-CHO-K1 cells (doxycycline-stimulated)
T2 construct: hRORα (Pro-211-end); expressed in transfected cells
T2 sequence (P35398 266-523): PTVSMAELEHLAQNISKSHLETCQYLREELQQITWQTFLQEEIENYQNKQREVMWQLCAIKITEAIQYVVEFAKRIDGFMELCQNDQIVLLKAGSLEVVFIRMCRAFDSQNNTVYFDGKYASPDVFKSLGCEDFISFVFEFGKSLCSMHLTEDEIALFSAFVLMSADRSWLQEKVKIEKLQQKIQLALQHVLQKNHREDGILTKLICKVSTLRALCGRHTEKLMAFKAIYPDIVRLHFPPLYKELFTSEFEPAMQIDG
Excerpt: as §1, §2, §3

RORβ = target: T3, RORβ (Rattus norvegicus, UniProt P45446); assay: Gal4-RORβ-LBD UAS-luciferase reporter assay in TRex-CHO-K1 cells (doxycycline-stimulated)
T3 construct: rRORβ (Pro 205-end); expressed in transfected cells
T3 sequence (P45446 205-459 isoform P45446-1): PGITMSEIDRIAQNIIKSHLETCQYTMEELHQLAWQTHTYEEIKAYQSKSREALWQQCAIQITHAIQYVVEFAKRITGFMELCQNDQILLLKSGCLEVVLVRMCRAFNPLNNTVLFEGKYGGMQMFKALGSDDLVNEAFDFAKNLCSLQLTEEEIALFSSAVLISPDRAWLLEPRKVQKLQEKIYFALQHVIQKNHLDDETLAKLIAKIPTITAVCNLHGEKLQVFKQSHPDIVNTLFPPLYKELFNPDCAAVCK
Excerpt: To investigate the transcriptional activity of all three RORs, we generated stable cell lines expressing an UAS-driven luciferase reporter together with the corresponding Gal4-DNA binding domain fused to the ligand binding domains (LBDs) of mRORγ (Pro-261-end), hRORα (Pro-211-end), or rRORβ (Pro 205-end). The Gal4-DBD-ROR-LBD fusion proteins were subcloned in the pcDNA4/TO expression vector (Thermo Scientific) and transfected into TRex-CHO-K1 cells (Thermo Scientific) for tetracycline-controlled expression of the corresponding ROR proteins. Transfected cells were selected with hygromycin and Zeocin and individual clones for each of the Gal4-RORγ, Gal4-RORα, and Gal4-RORβ cell lines were isolated using a standard serial dilution protocol. Clones with the highest doxycycline-dependent stimulation of luciferase activity were selected for all functional experiments. All cell lines were maintained in complete Ham’s F12 medium containing 10% fetal bovine serum (FBS), 10 µg/mL blasticidine, 100 µg/mL hygromycin, and 100 µg/mL Zeocin and were used within 2 months of culture without any loss of doxycycline-dependent stimulation of luciferase activity.
For screening FIU libraries, cells were resuspended in Ham’s F-12 assay medium containing 2% charcoal-treated FBS and no selection drugs. Ten thousand cells per well were seeded in 30 µL of assay medium in 384 white plates with clear bottom (Greiner). Cells were allowed to attach for 2 h, followed by compound treatment and stimulation with 20 ng/mL doxycycline for an additional 16–20 h. Appropriate solvent controls, negative controls with no doxycycline, and blanks with no cells were included in every plate. Prior to measuring luciferase activity, 6 µL of 0.15 mg/mL resazurin (Cayman Chemical) in PBS were added and cells were incubated for 1 h at 37 °C. Fluorescence intensity was detected at 545 nm excitation/590 nm emission using a CLARIOstar reader (BMGLabtech) as a measure of cell viability, to identify any potential cytotoxic effect of test compounds and mixtures. Following the resazurin assay, the medium was removed and 20 µL of BriteLite-Plus luciferase reagent (Perking Elmer) were added; luminescence was measured in a CLARIOstar reader using a 384 aperture spoon and a 0.1 sec measuring time interval.
as §3

RORγ [2] = target: T1, RORγ; assay: Gal4-RORγ-LBD UAS-luciferase reporter assay in TRex-CHO-K1 cells (doxycycline-stimulated); details: library 2520, RORγ cells
[3] = read-out: IC50 (μM, N=4) ROR-Gamma, library 2520
[4] = read-out: IC50 (μM, N=4) ROR-Alpha, library 2520
[5] = read-out: IC50 (μM, N=4) ROR-Beta, library 2520
[6] = T-REx-CHO-K1, individual controls 1295.201-307, 5 μg/ml, triplicate, read-out: % Inhibition RORγ 5 μg/ml
[7] = individual controls of library 1295, second confirmatory dose response, Figure 2
[8] = IC50 (μM) (N=4) RORα, individual controls of library 1295, second confirmatory dose response, Figure 2
[9] = IC50 (μM) (N=4) RORβ, individual controls of library 1295, second confirmatory dose response, Figure 2
[10] = IC50 (μM) (N=4) RORγ, individual controls of library 1295, second confirmatory dose response, Figure 2
[11] = T-REx-CHO-K1, read-out: % Inhibition RORγ 5 μg/ml

SMILES | inhibition at 5 µg/mL (RORγ [1]; [6]) [%] | IC50 (RORγ [1]; [7]) [µM] | IC50 (RORα; [8]) [µM] | IC50 (RORβ; [9]) [µM] | IC50 (RORγ [1]; [10]) [µM] | inhibition at 5 µg/mL (RORγ [1]; [11]) [%] | also measured
CCC(C(=O)NC1=NCC(Cc2ccc3ccccc3c2)N1CCC1CC2CCC1C2)c1ccccc1 (mixture of isomers) [2520.11] |  |  |  |  |  |  | IC50 (RORγ [1]; [3]): 7.55 ± 0.5 µM; IC50 (RORα; [4]): 10.3 ± 0.4 µM; IC50 (RORβ; [5]): 7.3 ± 0.8 µM; % Inhibition at 4 μM (N=3) (RORγ [2]): 67.6%
CCC(C(=O)NC1=NCC(C(C)CC)N1CC1CCCCC1)c1ccccc1 (mixture of isomers) [2520.15] |  |  |  |  |  |  | IC50 (RORγ [1]; [3]): 4.69 ± 0.2 µM; IC50 (RORα; [4]): 5.97 ± 0.2 µM; IC50 (RORβ; [5]): 3.66 ± 0.3 µM; % Inhibition at 4 μM (N=3) (RORγ [2]): 43.6%
CCC(C(=O)NC1=NCC(Cc2ccccc2)N1CC1CCCCC1)c1ccccc1 (mixture of isomers) [2520.27] |  |  |  |  |  |  | IC50 (RORγ [1]; [3]): 4.8 ± 0.2 µM; IC50 (RORα; [4]): 6.61 ± 0.3 µM; IC50 (RORβ; [5]): 4.89 ± 0.3 µM; % Inhibition at 4 μM (N=3) (RORγ [2]): 97.7%
CC(C)C(=O)NC1=NCC(Cc2ccccc2)N1CCC(C)c1ccccc1 (mixture of isomers) [2520.28] |  |  |  |  |  |  | IC50 (RORγ [1]; [3]): 6.37 ± 0.4 µM; IC50 (RORα; [4]): 8.48 ± 0.4 µM; IC50 (RORβ; [5]): 6.17 ± 0.3 µM; % Inhibition at 4 μM (N=3) (RORγ [2]): 69.8%
CCOc1ccc(CC2CN=C(NC(=O)Cc3ccc(OC)cc3)N2CCC(C)c2ccccc2)cc1 (mixture of isomers) [2520.46] |  |  |  |  |  |  | IC50 (RORγ [1]; [3]): 5.31 ± 0.2 µM; IC50 (RORα; [4]): 5.82 ± 0.3 µM; IC50 (RORβ; [5]): 5.46 ± 0.3 µM; % Inhibition at 4 μM (N=3) (RORγ [2]): 67.3%
O=C(Cc1ccccc1)NC1=NC[C@H](Cc2ccccc2)N1CCc1ccc(-c2ccccc2)cc1 [1295.248] | 91.5 | 5 | 10.1 | 12.1 |  |  | selectivity towards RORγ over RORα and RORβ (RORγ [1]): two-fold selectivity
O=C(Cc1ccccc1)NC1=NC[C@H](Cc2ccccc2)N1CCC1CCCCC1 [1295.261] |  |  | 15.3 ± 1.7 | 17.1 ± 2.6 | 17.2 ± 1.6 | 95.9 | 
O=C(Cc1ccccc1)NC1=NC[C@H](Cc2ccccc2)N1CCCC1CCCCC1 [1295.268] |  | 6.2 ± 0.6 | 10.1 ± 0.4 | 10.4 ± 0.8 |  | 103 | 
CC1CCC(CN2C(NC(=O)Cc3ccccc3)=NC[C@@H]2Cc2ccccc2)CC1 (stereo partly drawn) [1295.269] |  |  | 9 ± 0.3 | 9.3 ± 0.8 | 5.8 ± 0.6 | 104 | 
O=C(Cc1ccccc1)NC1=NC[C@H](Cc2ccccc2)N1CCC1CC2CCC1C2 (stereo partly drawn) [1295.270] |  |  | 9 ± 0.2 | 9.3 ± 4.9 | 5.9 ± 3.3 | 84.6 | 
O=C(NC1=NC[C@H](Cc2ccccc2)N1CCc1ccccc1)C1(c2ccccc2)CC1 [1295.272] | 96 | 8 ± 1 |  | 14.2 ± 3.6 |  |  | IC50 (RORα; [7]): 9.8 ± 0.5 µM
CC(CC(=O)NC1=NC[C@H](Cc2ccccc2)N1CCc1ccccc1)c1ccccc1 (stereo partly drawn) [1295.274] |  |  | 7.4 ± 0.2 | 6.7 ± 0.3 | 4.8 | 105 | selectivity towards RORγ over RORα and RORβ (RORγ [1]): slightly more selective than RORα/β
O=C(CCc1ccccc1)NC1=NC[C@H](Cc2ccccc2)N1CCc1ccccc1 [1295.289] | 83.1 | 7 ± 2.3 | 12.7 ± 0.4 | 12.8 ± 2.7 |  |  | 
CC(C)(C)C(=O)NC1=NC[C@H](Cc2ccccc2)N1CCc1ccccc1 [1295.298] | 94.7 | 10 ± 1.5 |  | 10.8 ± 0.4 |  |  | IC50 (RORα; [7]): 9.6 ± 0.3 µM
O=C(CC1CCCCC1)NC1=NC[C@H](Cc2ccccc2)N1CCc1ccccc1 [1295.299] |  |  | 14.1 ± 1.6 | 12.7 ± 4.2 | 8.4 ± 1.5 | 89.6 | 
O=C(CCCC1CCCCC1)NC1=NC[C@H](Cc2ccccc2)N1CCc1ccccc1 [1295.300] | 82.8 | 8.7 ± 2 | 10.2 ± 0.4 | 12.3 ± 0.8 |  |  | 
O=C(CCC1CCCCC1)NC1=NC[C@H](Cc2ccccc2)N1CCc1ccccc1 [1295.305] | 82.8 | 6.6 ± 1.4 | 10.3 ± 3.7 | 10.4 ± 0.7 |  |  | 
CC1CCC(C(=O)NC2=NC[C@H](Cc3ccccc3)N2CCc2ccccc2)CC1 (stereo partly drawn) [1295.306] |  |  | 9.7 ± 1.6 | 9.4 ± 0.6 | 9.5 ± 2.6 | 97.8 | 
O=C(CC1CC2CCC1C2)NC1=NC[C@H](Cc2ccccc2)N1CCc1ccccc1 (stereo partly drawn) [1295.307] |  |  | 8.9 ± 0.4 | 7.6 ± 0.3 | 5.8 ± 0.4 | 101 | 
